# Experimental data as given in patent US20090275633A1, “Novel Tumour Suppressor” (ONCOMETHYLOME SCIENCES SA, priority 2006, published 2009).
# “Also recorded” adds a separate entry of the source.
# What was measured:
# [1] = test system: histones H3 and H4 in colorectal cancer cell lines RKO, Co115, HCT-116, SW48 and LoVo; experiment: Histone H3 and H4 acetylation levels (western blot, HPCE) after treatment with HDAC inhibitors; assay type: cell-based, human; conditions: 24 hours
# From the text: To address these issues we assessed the effects of three classical HDACis, the hydroxamic acid trichostatin A and the carboxylic acids butyrate and valproate, on five colorectal cancer cell lines: the HDAC2-mutant cell lines RKO and Co115, and the HDAC2-wild type cell lines HCT-116, SW48 and LoVo. We analyzed the acetylation levels at histones H3 and H4 using western blotting with antibodies raised against tetraacetylated peptides of histones H3 and […], and high-performance capillary electrophoresis (HPCE)^3. […] The HDAC2-deficient cells were resistant to trichostatin A action from a biochemical and also a cellular point of view.
# (§1) Human colorectal and endometrial cancer cell lines were obtained from the American Type Culture Collection. HDAC inhibition treatment was developed adding 0.25 μM trichostatin A, 10 mM sodium valproate or 10 mM sodium butyrate to the culture medium for 24 hours. We obtained DNA samples from 228 human primary malignancies corresponding to colon tumors of HPNCC patients (n=47) and sporadic MSI+colon (n=127), MSI-colon (n=40), gastric (n=38) and endometrial carcinomas (n=16), as well as normal colon tissue (n=6), at the time of clinically indicated surgical procedures. Normal lymphocytes from healthy donors (n=50) was also used. DNA was extracted using standard protocols.
# We prepared histones in accordance with established protocols1. We obtained histones from cell lines and tumor samples in parallel with their matching controls under identical conditions. For cell lines, we isolated nuclei with RSB buffer (10 mM Tris 10 (pH 7.5), 10 mM NaCl and 3 mM MgCl2) containing I—Nonidet-P40 and protease inhibitors. We extracted nuclei with 0.25 M HCl and precipitated them with eight volumes of acetone. For tumors and their normal tissue counterparts, we homogenized samples with a Polytron homogenizer (Brinkman Instruments) in 0.25 M HCl and incubated them with gentle agitation for 4 h. We precipitated the resulting supernatant with eight volumes of acetone. We then fractionated individual histones by reverse-phase HPLC on a Jupiter C18 column. We made comparisons only between samples extracted with identical methodology.
# For western blotting, we collected cells by centrifugation and washed cell pellets twice with phosphate-buffered saline buffer. For HDAC2 expression, nuclear extracts were fractionated on a 7.5% SDS-PAGE gel, transferred the fractions to a polyvinylidene difluoride membrane with […] (Immobilon PSQ, Millipore), blocked the membrane in 5% milk PBS-T (phosphate-buffered saline with 0.1% Tween-20) and immunoprobed it with antibodies to HDAC2 (1:1000) and HDAC1 (1:1000; both from Abcam). The acetylated forms of histones 3 and 4 were analyzed as previously described2. We extracted the histones directly from the cell pellets with 0.250 M HCl. We fractionated 10 μg of the acid-extracted proteins on a 10% SDS-PAGE gel. Transferred membranes were immunoprobed with antibodies to acetylated H4 (1:2,000, Upstate) and acetylated H3 (1:50,000, Upstate). We used horseradish peroxidase-conjugated antibody to rabbit IgG (Amersham) at 1:3,000 dilution in PBS-T as the secondary antibody and antibody to H4 (1:3,000; Upstate) as a loading control. For immunolocalization experiments, we grew cells on coverslips and stained them with antibodies against HDAC2 and HDAC1 (Abcam) as previously described. We obtained images with a Leica DMRD photomicroscope coupled to a Leica DC200 camera, processed them using Adobe Photoshop software and analyzed them using public National Institutes of Health Image software. Immunohistochemical staining of HDAC2 was performed using a polyclonal antibody (Abcam, Cambridge, UK) at a 1:1500 dilution. After antigen retrieval with citrate buffer, immunodetection was performed by the DAKO EnVision Visualization Method (DAKO, Glostrup, Denmark), with diaminobenzidine chromogen as the substrate
# We quantified global histone H4 acetylation as previously described3. […]
# [2] = test system: colon cancer cell lines (RKO, Co115, HCT-116, SW48, LoVo); experiment: Cell viability (MTT assay) of colon cancer cell lines; assay type: cell-based, human; conditions: for inhibition of proliferation: all cancer cell lines independently of HDAC2 status
# Protocol: Cells were treated for 48 h with different concentrations of TSA (0-1000 nM). Experiments were performed in triplicate.
# (§2) FIG. 5. […] Experiments were performed in triplicate.
# as §1
# Cell viability was determined as previously described5. Aliquots of 1.5×10^4 cells were plated in 96-well microdilution plates. Following overnight cell adherence, experimental media containing the drugs or control media was added to appropriate wells. After 48 hours, the media was replaced by drug-free fresh media (100 μl/well) containing MTT (50 μg). After a 3 hour incubation at 37° C. in 5% CO2 atmosphere, the MTT was removed and MTT-formazan crystals were dissolved in DMSO (100 μl/well). Absorbance at 570 nm was determined on an automatized microtiter plate reader.
# [3] = test system: colon cancer cell lines (RKO, Co115, HCT-116, SW48, LoVo); experiment: Apoptosis by flow cytometry (YO-PRO-1/propidium iodide); assay type: cell-based, human; parameters: apoptosis (propidium iodide): dose or concentration left out as unconfirmed; conditions: for apoptosis (propidium iodide): HDAC2-deficient RKO cells, 24 h with SAHA
# Protocol: as §2, §1
# (§3) The percentage of apoptotic cells was determined by flow cytomery using Vybrant® Apoptosis Assay Kit #4-YO-PRO®-1/propidium iodide (Molecular Probes/Invitrogen). To analyze the cell cycle profiles, we stained with propidium iodide and the percentage of cells in G2/M was determined by flow cytometry.
# [4] = test system: colon cancer cell lines (RKO, Co115, HCT-116, SW48, LoVo); experiment: Cell cycle analysis (percentage of cells in G2/M, propidium iodide flow cytometry); assay type: cell-based, human; conditions: for blockage of the cell cycle at G2/M: all cancer cell lines independently of HDAC2 status; for G2/M cell cycle arrest: TSA
# Protocol: as §1, §3
# [5] = test system: HCT116, RKO and Co115 tumor xenografts; experiment: Mouse xenograft model with PBS, TSA and BUT treatments; assay type: in vivo, athymic nude mice
# From the text: a, PBS, BUT and TSA treated female athymic nude mice 17 days after injection of RKO (left flank) and HCT116 (right flank) cells.
# b, Tumors were excised and weighed. Tumor detail in cm and weight in mg for PBS-, BUT- and TSA-HCT116, RKO and C0115 cells.
# c, Effect of the HDAC inhibitors TSA and sodium butyrate (But) on the in vivo growth of HCT116, RKO and C0115. Tumor size was monitored over time and size in mm3. Dark square: PBS treatment, Dark circle: TSA treatment, Dark triangle: BUT treatment.
# Six-week-old female athymic nude mice nu/nu (Harlam Sprague-Dawley, Indianapolis, Ind.), housed under specific pathogen-free conditions (Institutional Animal Welfare Committee Agreement), were used for HCT116, RKO and Co115 tumor xenografts. For treatments, animals were randomly separated in three seven-specimens-groups, differentiated for PBS (Control), TSA (Trichostatin A) and BUT (Butyric acid) treatments. Both flanks of each animal were injected s.c. with 106 (HCT116) or 2×106 (RKO and CO115) cells in a total volume of 200 μL of PBS. For transfections assays both flanks of each animal were injected subcutaneously with 2×106 RKO (left) or RKO-HDAC2-transfected (right) cells in a total volume of 200 μL of PBS. Tumor development at the site of injection was evaluated daily. Animals were sacrificed at 21 days. The tumors were then excised and weighed.
# [6] = test system: RKO-HDAC2-transfected cells; experiment: H4 acetylation by HPCE in RKO cells transfected with HDAC2; assay type: cell-based, human; conditions: RKO cells transfected with wild-type HDAC2
# From the text: b, Quantification of H4 acetylation by HPCE.
# (§4) We quantified global histone H4 acetylation as previously described3. We prepared individual histone fractions from cell nuclei and purified them by reverse-phase HPLC on a Jupiter C18 column (Phenomenex, Inc.) with an acetonitrile gradient (20-60%) in 0.3% trifluoroacetic acid, using a HPLC gradient system (Beckman-Coulter). We resolved non-, mono, di-, tri- and tetra-acetylated histone H4 derivatives by HPCE. We used an uncoated fused-silica capillary (Beckman-Coulter; 60.2 cm 75 μm, effective length 50 cm) in a capillary electrophoresis system (P/ACE MDQ, Beckman-Coulter) with 100 mM phosphate buffer (pH 2.0) 0.02% (w/v) HPM-cellulose as running buffer and operating voltages of 12 kV.
# The HDAC2 expression vector pcDNA3-HDAC2 was constructed by cloning the cDNA corresponding to the gene HDAC2 in pcDNA vector (Invitrogen). […] C1ones expressing HDAC2 were selected in complete medium supplemented with 1 mg/mL G418. Stable clones were maintained in complete medium with 1 mg/mL G418. For colony formation experiments, stable G418-resistant colonies were fixed, stained with 2% methylene blue in 60% methanol, and the average number of colonies present in each well was determined.
# [7] = test system: HDAC2-knocked down HCT116 cells; assay type: cell-based, human
# From the text: as §4
# [8] = all colorectal cell lines irrespective of HDAC2 status, 10 mM sodium valproate or 10 mM sodium butyrate
# [9] = all cancer cell lines independently of HDAC2 status
# [10] = HDAC2-proficient cell lines, TSA
# [11] = HDAC2-proficient cell lines, TSA, listed as TSA
compound,measurement,setting,value
"CCCC(CCC)C(=O)[O-].[Na+] [valproate, sodium valproate]",hyperacetylation of histones H3 and H4,[1]; [8],induce hyperacetylation in all cells; also recorded: able to induce hyperacetylation
same,inhibition of proliferation,[2],significantly inhibited proliferation
same,induction of apoptosis,[3]; [9],induced apoptosis
same,blockage of the cell cycle at G2/M,[4],able to induce blockage of the cell cycle at G2/M
"O=C(CCCCCCC(=O)Nc1ccccc1)NO [SAHA, suberoylanilide hydroxamic acid]",apoptosis (propidium iodide),[3],enhanced resistance
same,apoptosis (propidium iodide),[3]; listed as suberoylanilide hydroxamic acid (SAHA),unable to efficiently inhibit cell growth and induce apoptosis
CC(/C=C/C(=O)NO)=C\[C@@H](C)C(=O)c1ccc(N(C)C)cc1 [trichostatin A],hyperacetylation of histones H3 and H4,"[1]; HDAC2-deficient RKO and Co115 cell lines, 0.25 μM trichostatin A",unable to induce the hyperacetylation
same,hyperacetylation of histones H3 and H4,"[1]; HDAC2-deficient RKO and Co115 cell lines, 0.25 μM trichostatin A, listed as TSA",does not induce histone hyperacetylation
same,hyperacetylation of histones H3 and H4,"[1]; HDAC2-wild type cells (HCT-116, SW48, LoVo), 0.25 μM trichostatin A",effective
same,hyperacetylation of histones H3 and H4,"[1]; HDAC2-wild type cells (HCT-116, SW48, LoVo), 0.25 μM trichostatin A, listed as TSA",hyperacetylation is achieved
same,biochemical and cellular (antiproliferative and proapoptotic) effects of HDAC inhibitors,"[2]; HDAC2-deficient cancer cells, general statement",resistant; also recorded: impairs
same,cell growth inhibition,"[2]; HDAC2-deficient cells (RKO, Co115), TSA 0-1000 nM, 48 h",remained highly resistant
same,cell growth inhibition,"[2]; HDAC2-deficient cells (RKO, Co115), TSA 0-1000 nM, 48 h, listed as TSA",marked resistance; also recorded: enhanced resistance
same,cell growth inhibition,[2]; [10],only able to accomplish these effects in the HDAC2-proficient cell lines
same,cell growth inhibition,[2]; [11],induces
same,induction of apoptosis,"[3]; HDAC2-mutant cells (RKO), TSA",remained highly resistant
same,induction of apoptosis,"[3]; HDAC2-mutant cells (RKO), TSA, listed as TSA",marked resistance
same,induction of apoptosis,[3]; [10],only able to accomplish these effects in the HDAC2-proficient cell lines
same,induction of apoptosis,[3]; [11],induces
same,G2/M cell cycle arrest,[4]; HDAC2-mutant cells (RKO),remained highly resistant
same,G2/M cell cycle arrest,"[4]; HDAC2-mutant cells (RKO), listed as TSA",marked resistance
same,G2/M cell cycle arrest,[4]; HDAC2-proficient cell lines,only able to accomplish these effects in the HDAC2-proficient cell lines
same,G2/M cell cycle arrest,"[4]; HDAC2-proficient cell lines, listed as TSA",induces
same,tumor shrinkage,[5]; HDAC2-mutant RKO and Co115 xenografts in nude mice,remained highly resistant
same,tumor shrinkage,"[5]; HDAC2-mutant RKO and Co115 xenografts in nude mice, listed as TSA",remained resistant
same,tumor shrinkage,[5]; HDAC2-proficient HCT-116 xenografts in nude mice,only able to accomplish these effects in the HDAC2-proficient cell line (HCT-116)
same,histone H4 acetylation mediated by TSA (HPCE),[6],more sensitive
same,histone H4 acetylation mediated by TSA (HPCE),[6]; listed as TSA,show resistance to histone acetylation
same,histone H4 acetylation mediated by TSA (HPCE),[7],resistant to histone acetylation; also recorded: resistance
"CCCC(=O)[O-].[Na+] [butyrate, sodium butyrate]",hyperacetylation of histones H3 and H4,[1]; [8],induce hyperacetylation in all cells; also recorded: able to induce hyperacetylation
same,inhibition of proliferation,[2],significantly inhibited proliferation
same,induction of apoptosis,[3]; [9],induced apoptosis
same,blockage of the cell cycle at G2/M,[4],able to induce blockage of the cell cycle at G2/M
same,tumor shrinkage,"[5]; all cancer cell lines xenografted in nude mice (HCT-116, RKO, Co115), independently of HDAC2 status",induced tumor shrinkage
